# Literature values as cited in patent publication US20200289552A1, “SOLID COMPOSITION COMPRISING IODINE AGENT AND SODIUM CHLORIDE HAVING IMPROVED WATER SOLUBILITY, AND ANTIVIRAL AND ANTIMICROBIAL COMPOSITION FOR EYE, ORAL CAVITY, NASAL CAVITY OR INHALATION CONTAINING AQUEOUS SOLUTION THEREOF” (FLUCHEM LTD, priority 2017, published 2020).
# Key:
# [1] = test system: highly pathogenic H5N1 and low pathogenic H5N3, H7N7, and H9N7
# [2] = stored sealed, room temperature and 65° C., for 3 years
# [3] = U.S. patent Ser. No. 04/950,653
substance,measurement,setting,value
povidone iodine,time to inactivate viruses below a detection limit,[1],less than 10 seconds
same,effective iodine loss,[2],about 0.5%
same,time to dissolve in water,[3],45 min
